Laboratory results from patent US8486370B2, “Heterocyclic ligands for integrin imaging and therapy” (The Regents of the University of California, priority 2006, dated 2013).
Read-outs that look alike come from different tables or passages of the source.

How the values were obtained:
[1] = molecular target: T1, α4β1 integrin (Homo sapiens, UniProt P05556+P13612); assay: Molt4 T-cell leukemia adhesion assay (inhibition of α4β1-mediated cell adhesion to CS-1 peptide); format: cell-based
T1 construct: adding a volume of 80 μL consisted of 1.3×10^5 Molt4 cells; endogenous in cells; host or cells: Molt4 T-cell leukemia cells
Excerpt: α4β1 integrins are cell surface heterodimeric glycoproteins that mediate cell adhesion to vascular cell adhesion molecule-1 (VCAM-1 or CD 106) as well as to extracellular matrix (ECM) protein fibronectin (FN). Integrin expression and function depend on cell activation. The dynamic changes in integrin affinity, avidity, or activation state are implicated in cell migration, survival and apoptosis, cancer development and metastasis. Binding affinities (IC50s) of the ligands were studied in a Molt4 T-cell leukemia adhesion assay by inhibiting the α4β1-mediated cell adhesion to CS-1 peptide ([…]), which is the binding motif of fibronectin to α4β1 receptor.
General Procedure for Cell Adhesion Assay:
96-well plates were prepared by coating them with 5 μg/mL neutravidin for a one-hour period, followed by adding […] biotin-conjugated CS-1 peptide. The wells were then blocked with 1% […] in phosphate buffer saline (PBS) solution, followed by adding a volume of 80 μL consisted of 1.3×10^5 Molt4 cells, and finally different dilutions of tested ligands in binding buffer (1 mM Mn^2+ TBS), were added to each well. To allow binding, the plates were incubated for 30 min at 37° C., followed by washing of unbound cells with PBS. Bound cells were fixed with 10% formalin buffered in phosphate for 30 min and stained with 0.5% crystal violet. After washing and drying at room temperature, the dye was dissolved in 1% SDS, and absorbance at 570 nm was measured using a 96-well TECAN OD UV/Vis spectrophotometer. Inhibition was calculated as a percentage resulting from the concentration-dependent curve.

[2] = xenograft model, optical and radioimaging; cited from earlier work
[3] = compound by itself; cited from earlier work

T1 sequence (P13612 34-1032): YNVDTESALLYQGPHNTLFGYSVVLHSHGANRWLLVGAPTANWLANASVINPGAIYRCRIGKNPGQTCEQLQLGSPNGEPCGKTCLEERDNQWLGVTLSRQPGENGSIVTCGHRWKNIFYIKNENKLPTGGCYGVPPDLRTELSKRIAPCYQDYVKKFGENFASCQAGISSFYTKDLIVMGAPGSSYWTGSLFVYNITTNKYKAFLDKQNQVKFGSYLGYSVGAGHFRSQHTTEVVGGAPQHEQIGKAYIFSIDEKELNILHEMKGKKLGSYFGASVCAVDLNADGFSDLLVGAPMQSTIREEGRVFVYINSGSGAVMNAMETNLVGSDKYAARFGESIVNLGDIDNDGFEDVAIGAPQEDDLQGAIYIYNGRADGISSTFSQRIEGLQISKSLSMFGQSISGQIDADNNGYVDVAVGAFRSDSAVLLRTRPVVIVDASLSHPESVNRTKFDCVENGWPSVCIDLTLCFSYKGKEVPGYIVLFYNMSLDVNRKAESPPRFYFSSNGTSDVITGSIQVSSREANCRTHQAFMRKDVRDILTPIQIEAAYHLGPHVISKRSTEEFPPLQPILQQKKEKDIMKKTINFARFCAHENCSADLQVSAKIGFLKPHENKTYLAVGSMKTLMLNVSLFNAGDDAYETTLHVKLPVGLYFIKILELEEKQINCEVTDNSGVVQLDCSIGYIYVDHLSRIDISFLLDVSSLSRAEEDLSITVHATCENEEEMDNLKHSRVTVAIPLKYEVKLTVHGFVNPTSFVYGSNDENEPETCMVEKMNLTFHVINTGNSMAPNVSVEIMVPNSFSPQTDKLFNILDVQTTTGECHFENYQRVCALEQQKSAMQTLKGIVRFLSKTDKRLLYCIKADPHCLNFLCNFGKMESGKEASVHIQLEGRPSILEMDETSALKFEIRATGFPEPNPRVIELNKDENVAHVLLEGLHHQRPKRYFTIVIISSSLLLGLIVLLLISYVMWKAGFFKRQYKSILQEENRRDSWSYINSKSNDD
T1 sequence (P05556 21-798): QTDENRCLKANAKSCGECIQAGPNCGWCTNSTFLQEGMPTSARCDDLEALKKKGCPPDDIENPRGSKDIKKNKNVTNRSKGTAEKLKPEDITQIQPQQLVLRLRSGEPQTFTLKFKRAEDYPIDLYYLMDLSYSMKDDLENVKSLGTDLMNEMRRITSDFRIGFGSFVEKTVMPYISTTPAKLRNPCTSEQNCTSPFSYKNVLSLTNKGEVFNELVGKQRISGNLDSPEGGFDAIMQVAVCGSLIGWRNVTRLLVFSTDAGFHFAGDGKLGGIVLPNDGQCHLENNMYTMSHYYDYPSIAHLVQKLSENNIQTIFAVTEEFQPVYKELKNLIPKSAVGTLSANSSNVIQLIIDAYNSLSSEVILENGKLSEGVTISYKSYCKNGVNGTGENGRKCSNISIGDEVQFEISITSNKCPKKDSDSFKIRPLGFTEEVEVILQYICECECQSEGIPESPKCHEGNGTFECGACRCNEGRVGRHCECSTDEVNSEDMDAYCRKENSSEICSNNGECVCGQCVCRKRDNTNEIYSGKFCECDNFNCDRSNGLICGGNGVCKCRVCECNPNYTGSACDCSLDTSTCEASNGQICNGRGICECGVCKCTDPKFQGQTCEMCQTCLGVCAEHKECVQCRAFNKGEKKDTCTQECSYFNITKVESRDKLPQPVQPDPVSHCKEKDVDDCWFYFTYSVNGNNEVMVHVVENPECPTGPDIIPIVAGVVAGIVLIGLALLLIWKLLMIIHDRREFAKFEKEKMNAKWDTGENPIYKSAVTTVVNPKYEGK

Structure (SMILES)	IC50 [1]	further results
NC(=O)C1(NC(=O)[C@H](CCCC(=O)O)NC(=O)[C@H](CCCCNC(=O)/C=C/c2cccnc2)NC(=O)c2ccc(Nc3nc4cc(Br)ccc4[nH]3)cc2)CCCCC1 [KLCA12]	–	IC50 ([1]; Molt4 cells, adhesion to biotin-conjugated CS-1 peptide, 1 mM Mn2+ TBS, 30 min at 37° C.): 0.115 nM
NC(=O)C1(NC(=O)C(CCCC(=O)O)NC(=O)C(CCCCNC(=O)C=Cc2cccnc2)NC(=O)Cc2ccc(Nc3nc4ccccc4o3)cc2)CCCCC1 (stereo not drawn) [KLCA16]	2 nM	–
Cc1cccc2oc(Nc3ccc(CC(=O)NC(CCCCNC(=O)C=Cc4cccnc4)C(=O)NC(CCCC(=O)O)C(=O)NC4(C(N)=O)CCCCC4)cc3)nc12 (stereo not drawn) [KLCA15]	4 nM	–
NC(=O)C1(NC(=O)C(CCCC(=O)O)NC(=O)C(CCCCNC(=O)C=Cc2cccnc2)NC(=O)Cc2ccc(Nc3nc4ccccc4s3)cc2)CCCCC1 (stereo not drawn) [KLCA14]	0.053 nM	–
Cc1ccccc1NC(=O)Nc1ccc(CC(=O)N[C@@H](CCCCNC(=O)/C=C/c2cccnc2)C(=O)N[C@@H](CCCC(=O)O)C(=O)NC2(C(N)=O)CCCCC2)cc1 [LLP2A]	–	uptake in the kidneys [2]: rather high uptake in the kidneys; water solubility [3]: not very water soluble
